The values below come from US9751854B2 (Millennium Pharmaceuticals, Inc., priority 2014, dated 2017).

In this test the target is human VPS34 (Homo sapiens (Human), UniProt Q8NEB9). The test can be described thus: Human VPS34 enzyme assay (Adapta TR-FRET ADP detection). To be noted: IC50 range class. In kind it is biochemical. On the technique in general: In TR-FRET formats the signal depends on donor and acceptor labels being close together.
Chain of human VPS34 (Q8NEB9 whole entry): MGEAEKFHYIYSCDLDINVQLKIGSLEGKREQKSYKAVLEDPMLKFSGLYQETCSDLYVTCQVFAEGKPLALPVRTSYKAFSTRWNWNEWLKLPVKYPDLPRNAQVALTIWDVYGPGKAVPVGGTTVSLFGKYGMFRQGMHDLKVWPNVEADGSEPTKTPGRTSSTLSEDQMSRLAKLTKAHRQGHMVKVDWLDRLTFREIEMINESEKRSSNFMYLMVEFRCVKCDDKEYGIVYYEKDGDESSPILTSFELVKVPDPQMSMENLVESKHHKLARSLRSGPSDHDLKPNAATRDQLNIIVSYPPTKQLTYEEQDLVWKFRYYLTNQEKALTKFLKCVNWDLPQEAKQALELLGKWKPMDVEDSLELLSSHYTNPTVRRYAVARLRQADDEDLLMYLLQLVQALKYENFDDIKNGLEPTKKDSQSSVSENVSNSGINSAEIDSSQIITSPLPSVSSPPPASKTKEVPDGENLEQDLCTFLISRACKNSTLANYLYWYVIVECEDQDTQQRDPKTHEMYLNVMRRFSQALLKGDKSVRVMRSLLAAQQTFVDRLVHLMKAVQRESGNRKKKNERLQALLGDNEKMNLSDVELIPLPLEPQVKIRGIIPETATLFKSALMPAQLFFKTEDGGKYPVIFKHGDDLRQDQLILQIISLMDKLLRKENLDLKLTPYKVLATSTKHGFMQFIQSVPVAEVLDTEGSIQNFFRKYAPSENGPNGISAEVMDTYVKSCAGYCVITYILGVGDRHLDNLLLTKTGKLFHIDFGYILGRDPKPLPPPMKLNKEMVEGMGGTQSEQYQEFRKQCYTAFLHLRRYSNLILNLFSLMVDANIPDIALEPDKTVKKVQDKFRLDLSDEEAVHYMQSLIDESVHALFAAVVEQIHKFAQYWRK
Method: Human VPS34 Enzyme Assay Method
100 nL compounds in DMSO are added to wells of a 384 well microtitre plate (Greiner 780076). At room temperature: 5 ul VPS34 reaction buffer (Invitrogen Assay Buffer Q (diluted 1 in 5 with nanopure water) plus 2 mM DTT and 2 mM MnCl2) containing ATP (20 uM, Promega) and 200 uM PI-PS substrate (Invitrogen PV5122) is added followed immediately by 5 ul VPS34 reaction buffer (as above) containing VPS34 (5 nM, Millennium Protein Sciences Group) and the mixture is incubated with shaking at room temperature for 1 hour. Then 5 ul VPS34 stop-detect mix (as per Invitrogen Adapta Assay kit (PV5009) instructions (contains kinase quench buffer, TR-FRET buffer, Adapta Eu anti-ADP antibody and Alexa Fluor 647 ADP tracer)) is added to quench the reaction. The plates are then incubated for 30 minutes at room temperature with shaking and then read on a BMG PheraStar Plus reader.
For the assay methods described above, test compound percent inhibition, at various concentrations, is calculated relative to control (DMSO and EDTA) treated samples. Compound concentration versus percent inhibition curves are fitted to generate IC50 values.
What is called IC50 is the concentration that gives 50% inhibition. Low readings indicate greater potency in that assay, high ones weaker potency in that assay. For the molecule `CC(=O)Nc1cc(-c2cnc(N)c(S(=O)(=O)N3CCCCC3)c2)ccn1` [Compound I-156, N-[6-amino-5-(piperidin-1-ylsulfonyl)-3,4′-bipyridin-2′-yl]acetamide], the IC50 is less than 10 nM.

As for `CC(=O)Nc1cc(-c2cnc(N)c(C(=O)N3CC[C@@H](F)C3)c2)ccn1` [Compound I-157, N-[6-amino-5-{[(3R)-3-fluoropyrrolidin-1-yl]carbonyl}-3,4′-bipyridin-2′-yl)acetamide], the IC50 was 10 to 50 nM.

The molecule `CC(=O)Nc1cc(-c2cnc3[nH]cc(S(=O)(=O)N4CCCC4)c3c2)ccn1` [Compound I-158, N-{4-[3-(pyrrolidin-1-ylsulfonyl)-1H-pyrrolo[2,3-b]pyridin-5-yl]pyridin-2-yl}acetamide] showed a concentration for half-maximal inhibition (IC50) of less than 10 nM.

As to `COc1cc(F)c(S(=O)(=O)Nc2cc(-c3ccnc(NC(C)=O)c3)cnc2C)cc1F` [Compound I-159, N-(5-{[(2,5-difluoro-4-methoxyphenyl)sulfonyl]amino}-6-methyl-3,4′-bipyridin-2′-yl)acetamide], the IC50 was less than 10 nM.

In the case of `CNc1ncc(-c2ccnc(NC(C)=O)c2)cc1C(=O)NC12CC(C1)C2` [Compound I-160, 2′-acetamido-N-(bicyclo[1.1.1]pent-1-yl)-6-(methylamino)-3,4′-bipyridine-5-carboxamide], the IC50 lay in the range of 10 to 50 nM.

`CC(=O)Nc1cc(-c2cnc(C)c(NS(=O)(=O)c3ccc(F)cc3F)c2)c(F)cn1` [Compound I-161, N-(5-{[(2,4-difluorophenyl)sulfonyl]amino}-5′-fluoro-6-methyl-3,4′-bipyridin-2′-yl)acetamide] yielded an IC50 of less than 10 nM.

`CC(=O)Nc1cc(-c2cnc(N(C)C)c(C(=O)N(C)C)c2)ccn1` [Compound I-162, 2′-acetamido-6-(dimethylamino)-N,N-dimethyl-3,4′-bipyridine-5-carboxamide] returned an IC50 of 10 to 50 nM.

In turn, `COc1ccc(S(=O)(=O)Nc2cc(-c3ccnc(NC(C)=O)c3)cnc2C)c(F)c1` [Compound I-163, N-(5-{[(2-fluoro-4-methoxyphenyl)sulfonyl]amino}-6-methyl-3,4′-bipyridin-2′-yl)acetamide] had an IC50 of less than 10 nM.

`CC(=O)Nc1cc(-c2cnc(F)c(NS(=O)(=O)c3ccc(F)cc3F)c2)ccn1` [Compound I-164, N-(5-{[(2,4-difluorophenyl)sulfonyl]amino}-6-fluoro-3,4′-bipyridin-2′-yl)acetamide] returned a 50% inhibitory concentration (IC50) of less than 10 nM.

On to `COc1ccc(S(=O)(=O)Nc2cc(-c3ccnc(NC(C)=O)c3)cnc2C)cc1` [Compound I-165, N-(5-{[(4-methoxyphenyl)sulfonyl]amino}-6-methyl-3,4′-bipyridin-2′-yl)acetamide], for which the IC50 was less than 10 nM.

`CN(C)S(=O)(=O)c1cc(-c2ccnc(Nc3ncco3)c2)cnc1N` [Compound I-166, 6-amino-N,N-dimethyl-2′-(1,3-oxazol-2-ylamino)-3,4′-bipyridine-5-sulfonamide]: the IC50 is less than 10 nM.

Take `CC(=O)Nc1cc(-c2cnc(C)c(NS(C)(=O)=O)c2)ccn1` [Compound I-167, N-{6-methyl-5-[(methylsulfonyl)amino]-3,4′-bipyridin-2′-yl}acetamide]: the IC50 was in the range of 10 to 50 nM.

`CC(=O)Nc1cc(-c2cnc(C)c(NS(=O)(=O)c3cccc(C(F)(F)F)c3)c2)ccn1` [Compound I-168, N-[6-methyl-5-({[3-(trifluoromethyl)phenyl]sulfonyl}amino)-3,4′-bipyridin-2′-yl]acetamide] came in with an IC50 of less than 10 nM.

On to `CC(=O)Nc1cc(-c2cnc(N)c(C(=O)NC3CC3)c2)ccn1` [Compound I-169, 2′-acetamido-6-amino-N-cyclopropyl-3,4′-bipyridine-5-carboxamide], for which the IC50 lay within 10 to 50 nM.

The molecule `CC(=O)Nc1cc(-c2cnc(N)c(S(=O)(=O)Nc3ccc(F)cc3F)c2)ccn1` [Compound I-170, N-{6-amino-5-[(2,4-difluorophenyl)sulfamoyl]-3,4′-bipyridin-2′-yl}acetamide] came in with an IC50 of less than 10 nM.

As to `COC(=O)Nc1cc(-c2cnc(N)c(S(=O)(=O)N(C)C)c2)ccn1` [Compound I-171, Methyl [6-amino-5-(dimethylsulfamoyl)-3,4′-bipyridin-2′-yl]carbamate], the IC50 was less than 10 nM.

`CC(=O)Nc1cc(-c2cnc(N)c(S(=O)(=O)Cc3ccccc3Cl)c2)ccn1` [Compound I-172, N-{6-amino-5-[(chlorobenzyl)sulfonyl]-3,4′-bipyridin-2′-yl}acetamide] returned an IC50 of 10 to 50 nM.

Molecule `CNc1ncc(-c2ccnc(NC(C)=O)c2)cc1S(=O)(=O)N(C(C)C)C(C)C` [Compound I-173, N-[5-(diisopropylsulfamoyl)-6-(methylamino)-3,4′-bipyridin-2′-yl]acetamide] yielded an IC50 of less than 10 nM.

Molecule `CC(=O)Nc1cc(-c2cnc(N(C)C)c(C(=O)N(C)c3ccc(F)cc3F)c2)ccn1` [Compound I-174, 2′-Acetamido-N-(2,4-difluorophenyl)-6-(dimethylamino)-N-methyl-[3,4′-bipyridine]-5-carboxamide] returned an IC50 of less than 10 nM.

The molecule `CC(=O)Nc1cc(-c2cnc(N)c(S(=O)(=O)C(C)C)c2)ccn1` [Compound I-175, N-[6-amino-5-(isopropylsulfonyl)-3,4′-bipyridin-2′-yl]acetamide] came in with an IC50 of 10 to 50 nM.

The molecule `CC(=O)Nc1cc(-c2cnc3[nH]cc(S(=O)(=O)c4ccccc4)c3c2)ccn1` [Compound I-176, N-{4-[3-(phenylsulfonyl)-1H-pyrrolo[2,3-b]pyridin-5-yl]pyridin-2-yl}acetamide] showed an IC50 of 10 to 50 nM.

Take `CC(=O)Nc1cc(-c2cnc(C)c(NS(=O)(=O)c3ccc(F)cc3F)c2)c(C)cn1` [Compound I-177, N-(5-{[(2,4-difluorophenyl)sulfonyl]amino}-5′,6-dimethyl-3,4′-bipyridin-2′-yl)acetamide]: the IC50 fell in the range of 10 to 50 nM.

`CC(=O)Nc1cc(-c2cnc(C)c(NS(=O)(=O)c3cc(C)ccc3C)c2)ccn1` [Compound I-178, N-(5-{[(2,5-dimethylphenyl)sulfonyl]amino}-6-methyl-3,4′-bipyridin-2′-yl)acetamide] gave an IC50 of less than 10 nM.

Take `CC(=O)Nc1cc(-c2cnc(N)c(C(=O)Nc3cccc(F)c3F)c2)ccn1` [Compound I-179, 2′-acetamido-6-amino-N-(2,3-difluorophenyl)-3,4′-bipyridine-5-carboxamide]: the IC50 was less than 10 nM.

Regarding `COC(=O)Nc1cc(-c2cncc(C(=O)C3CC3)c2)ccn1` [Compound I-180], the IC50 lay within 50 to 100 nM.

Take `CC(=O)Nc1cc(-c2cnc(N)c(N3CCCS3(=O)=O)c2)ccn1` [Compound I-181, N-[6-amino-5-(1,1-dioxidoisothiazolidin-2-yl)-3,4′-bipyridin-2′-yl]acetamide]: the IC50 was less than 10 nM.

`CC(=O)Nc1cc(-c2cnc(C)c(NS(=O)(=O)c3ccc(C)cc3F)c2)ccn1` [Compound I-182, N-(5-{[(2-fluoro-4-methylphenyl)sulfonyl]amino}-6-methyl-3,4′-bipyridin-2′-yl)acetamide] yielded an IC50 of less than 10 nM.

Regarding `CC(=O)Nc1cc(-c2cnc(N)c(S(=O)(=O)NCC3CCCCC3)c2)ccn1` [Compound I-183, N-{6-amino-5-[(cyclohexylmethyl)sulfamoyl]-3,4′-bipyridin-2′-yl}acetamide], the IC50 is less than 10 nM.

`CC(=O)Nc1cc(-c2cncc(C=O)c2)ccn1` [Compound I-184, N-(5-formyl-3,4′-bipyridin-2′-yl)acetamide]: the IC50 was more than 100 nM.

Molecule `CC(=O)Nc1cc(-c2cnc(C)c(NS(=O)(=O)c3ccc(F)cc3)c2)ccn1` [Compound I-185, N-(5-{[(4-fluorophenyl)sulfonyl]amino}-6-methyl-3,4′-bipyridin-2′-yl)acetamide] yielded an IC50 of less than 10 nM.

The molecule `CC(=O)Nc1cc(-c2cnc(N)c(S(=O)(=O)N(C)C)c2)c(F)cn1` [Compound I-186] came in with an IC50 of 10 to 50 nM.

Molecule `CC(=O)Nc1cc(-c2cnc(N)c(C(=O)NC34CC(C3)C4)c2)ccn1` [Compound I-187, 2′-acetamido-6-amino-N-(bicyclo[1.1.1]pent-1-yl)-3,4′-bipyridine-5-carboxamide] yielded an IC50 of less than 10 nM.

The molecule `CC(=O)Nc1cc(-c2cncc(/C=C/C(=O)c3ccc(F)cc3)c2)ccn1` [Compound I-188, N-{5-[(1E)-3-(4-fluorophenyl)-3-oxoprop-1-en-1-yl]-3,4′-bipyridin-2′-yl}acetamide] came in with an IC50 of 50 to 100 nM.

In turn, `CC(=O)Nc1cc(-c2cnc3[nH]ncc3c2)ccn1` [Compound I-189, N-[4-(1H-pyrazolo[3,4-b]pyridin-5-yl)pyridin-2-yl]acetamide] displayed an IC50 of 50 to 100 nM.

In the case of `CC(=O)Nc1cc(-c2cncc(S(=O)(=O)NC34CC(C3)C4)c2)ccn1` [Compound I-190, N-[5-(bicyclo[1.1.1]pent-1-ylsulfamoyl)-3,4′-bipyridin-2′-yl]acetamide], the IC50 was in the range of 10 to 50 nM.

As to `CC(=O)Nc1cc(-c2cc(S(C)(=O)=O)c[n+]([O-])c2)ccn1` [Compound I-191, N-{4-[5-(methylsulfonyl)-1-oxidopyridin-3-yl]pyridin-2-yl}acetamide], the concentration for half-maximal inhibition (IC50) was more than 100 nM.

Molecule `CC(=O)Nc1cc(-c2cncc(N3CCCS3(=O)=O)c2)ccn1` [Compound I-192, N-[5-(1,1-dioxidoisothiazolidin-2-yl)-3,4′-bipyridin-2′-yl]acetamide] showed a concentration for half-maximal inhibition (IC50) of 50 to 100 nM.

`CC(=O)Nc1cc(-c2cnc(C)c(NC(C)=O)c2)ccn1` [Compound I-193, N,N′-(6-methyl-3,4′-bipyridine-2′,5-diyl)diacetamide] gave an IC50 of 50 to 100 nM.

With `CC(=O)Nc1cc(-c2cncc(C(C)=O)c2)ccn1` [Compound I-194, N-(5-acetyl-3,4′-bipyridin-2′-yl)acetamide], the IC50 is more than 100 nM.

For the molecule `COC(=O)Nc1cc(-c2cnc(C)c(NS(=O)(=O)c3ccc(F)cc3F)c2)ccn1` [Compound I-195, methyl (5-{[(2,4-difluorophenyl)sulfonyl]amino}-6-methyl-3,4′-bipyridin-2′-yl)carbamate], the half-inhibitory concentration (IC50) is less than 10 nM.

In the case of `CC(=O)Nc1cc(-c2cnc(C)c(NS(=O)(=O)c3ccc(C(F)(F)F)cc3Cl)c2)ccn1` [Compound I-196, N-[5-({[2-chloro-4-(trifluoromethyl)phenyl]sulfonyl}amino)-6-methyl-3,4′-bipyridin-2′-yl]acetamide], the IC50 is less than 10 nM.
